Experimental data as given in PMC5706040, “Reclamation of Marine Chitinous Materials for the Production of α-Glucosidase Inhibitors via Microbial Conversion” (Marine Drugs, 2017).

Tests used:
Test in all cases: absorbance at […] nm, p-nitrophenol release
Rice α-glucosidase = target: T1, Rice α-glucosidase; assay type: biochemical, Oryza sativa; details: pNPG substrate, 0.1 mol/L potassium phosphate pH 7, 37 °C, 20 min preincubation, enzyme 1.0 U/mL
T1 construct: gene Os06g0675700; commercial enzyme from rice, type 4 (Sigma Aldrich)

[1] = target: T2, S. cerevisiae α-glucosidase; assay type: biochemical, Saccharomyces cerevisiae; details: pNPG substrate, 0.1 mol/L potassium phosphate pH 7, 37 °C, 20 min preincubation, enzyme 0.25 U/mL
T2 construct: gene MAL12; commercial yeast enzyme (Sigma Aldrich, Singapore)

[2] = target: T3, B. stearothermophilus α-glucosidase; assay type: biochemical, Geobacillus stearothermophilus; details: pNPG substrate, 0.1 mol/L potassium phosphate pH 7, 37 °C, 20 min preincubation, enzyme 0.10 U/mL
T3 construct: gene exo-alpha-1; commercial enzyme (Sigma Aldrich, Singapore)

[3] = target: T4, Rat intestinal α-glucosidase; assay type: biochemical; details: pNPG substrate, 0.1 mol/L potassium phosphate pH 7, 37 °C, 20 min preincubation, intestinal acetone powder preparation
T4 construct: gene Si; preparation from rat intestinal acetone powder (Sigma Aldrich)

SMILES: C[C@H]1O[C@H](O[C@H]2[C@H](O)[C@@H](O)[C@@H](O[C@H]3[C@H](O)[C@@H](O)C(O)O[C@@H]3CO)O[C@@H]2CO)[C@H](O)[C@@H](O)[C@@H]1N[C@H]1C=C(CO)[C@@H](O)[C@H](O)[C@H]1O (stereo partly shown) [acarbose]
- Inhibition by Acarbose / IC50 (Rice α-glucosidase): 3.04 ± 0.82 µg/mL
- α-Glucosidase Inhibition / IC50 [1]: 1095 ± 93 µg/mL
- Inhibition by Acarbose / IC50 [2]: 0.042 ± 0.003 µg/mL
- Inhibition by Acarbose / IC50 [3]: 78 ± 3.2 µg/mL
